Measurements: US20260028335A1, “NOVEL ISOTHIAZOL-3-YL AND ISOXAZOL-3-YL SULFONAMIDE COMPOUNDS” (Hoffmann-La Roche Inc., priority 2022, published 2026)

Target: human GPR17 short isoform (Homo sapiens, UniProt Q13304)
Assay: GPR17 cAMP assay (hGPR17 cAMP, antagonist mode, TR-FRET)
Assay type: cell-based
Conditions: CHO-K1 cells stably expressing human GPR17 short isoform; EC80 of agonist MDL29,951; forskolin 15 μM; IBMX 0.5 mM
Method: GPR17 cAMP Assay Protocol:
CHO-K1 cells stably expressing vector containing untagged human GPR17 short isoform (Roche) were cultured at 37° C./5% CO2 in DMEM (Dulbecco's Modified Eagle Medium):F-12 (1:1) supplemented with 10% foetal bovine serum and 400 μg/ml Geneticin.
Changes in intracellular cyclic adenosine monophosphate (cAMP) levels were quantified using the Nano-TRF Detection Assay kit (Roche Diagnostics, Cat. No. 05214386001). This assay allows for direct cAMP quantification in a homogeneous solution. cAMP is detected based on time-resolved fluorescence energy transfer (TR-FRET) and competitive binding of ruthenylated cAMP and endogenous cAMP to an anti-cAMP monoclonal antibody labeled with AlexaFluor-700. The Ruthenium complex serves as the FRET donor and transfers energy to AlexaFluor-700. The FRET signal is inversely proportional to the cAMP concentration.
CHO-GPR17S cells were detached with Accutase and resuspended in assay buffer consisting of Hank's Balanced Salt Solution (HBSS), 10 mM HEPES (4-(2-hydroxyethyl) piperazine-1-ethanesulfonic acid solution) and 0.1% bovine serum albumin (pH 7.4). The cells were seeded in black 384-well plates (Corning) at a density of 10,000 cells/20 μl assay buffer until the addition of compounds.
Test antagonist compounds were serially diluted in dimethyl sulfoxide (DMSO) and spotted in 384-well plates. The compounds were then diluted in HBSS buffer supplemented with an EC80 concentration of MDL29,951 (3-(2-Carboxy-4,6-dichloroindol-3-yl)propionic acid) (GPR17 agonist) plus 3-Isobutyl-1-methylxanthine (IBMX) (0.5 mM final concentration) and added to the cells at room temperature. Forskolin (15 μM final concentration) was added 5 minutes after the test compounds and the cells were incubated at room temperature for 30 minutes. The assay was stopped by adding cAMP detection mix (containing detergents for cell lysis) for 90 minutes at room temperature.
Cellular cAMP was measured using a Paradigm reader (Molecular Devices). The raw data was used to calculate the FRET signal based on the assay's P-factor as per cAMP kit instructions. The data was normalized to the maximal activity of a reference antagonist and dose response curves were fitted to the percent activity of the test compounds using a sigmoidal dose response model (Genedata Screener).
Results in the hGPR17 cAMP assay are provided for compounds of formula I in Table 1

Sequence of human GPR17 short isoform (Q13304 29-367): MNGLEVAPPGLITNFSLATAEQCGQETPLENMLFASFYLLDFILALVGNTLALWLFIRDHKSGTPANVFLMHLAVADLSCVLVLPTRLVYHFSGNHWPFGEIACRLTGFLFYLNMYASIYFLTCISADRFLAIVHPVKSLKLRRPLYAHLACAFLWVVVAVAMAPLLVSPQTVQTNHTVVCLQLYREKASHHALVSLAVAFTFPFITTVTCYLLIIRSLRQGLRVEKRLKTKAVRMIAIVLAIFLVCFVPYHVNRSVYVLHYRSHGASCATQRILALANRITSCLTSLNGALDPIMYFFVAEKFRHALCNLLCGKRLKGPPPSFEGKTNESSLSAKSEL

SMILES	IC50 [nM]
Cc1onc(NS(=O)(=O)c2c[nH]c3cc(Cl)ccc23)c1Br [Example 21, N-(4-bromo-5-methyl-isoxazol-3-yl)-6-chloro-1H-indole-3-sulfonamide]	315
Cc1snc(NS(=O)(=O)c2c[nH]c3cc(Cl)ccc23)c1C#N [Example 15, 6-chloro-N-(4-cyano-5-methyl-isothiazol-3-yl)-1H-indole-3-sulfonamide]	499
CCCc1onc(NS(=O)(=O)c2c[nH]c3cc(Cl)ccc23)c1C [Example 18, 6-chloro-N-(4-methyl-5-propyl-isoxazol-3-yl)-1H-indole-3-sulfonamide]	815
O=S(=O)(Nc1nsc(C2CC2)c1Cl)c1c[nH]c2nc(Cl)ccc12 [Example 3, 6-chloro-N-(4-chloro-5-cyclopropyl-isothiazol-3-yl)-1H-pyrrolo[2,3-b]pyridine-3-sulfonamide]	131
Cc1onc(NS(=O)(=O)c2c[nH]c3cc(Cl)ccc23)c1C [Example 19, 6-chloro-N-(4,5-dimethylisoxazol-3-yl)-1H-indole-3-sulfonamide]	550
Cc1snc(NS(=O)(=O)c2c[nH]c3cc(Cl)ccc23)c1C1CC1 [Example 14, 6-chloro-N-(4-cyclopropyl-5-methyl-isothiazol-3-yl)-1H-indole-3-sulfonamide]	1110
Cc1cc(NS(=O)(=O)c2c[nH]c3cc(Cl)ccc23)ns1 [Example 13, 6-chloro-N-(5-methylisothiazol-3-yl)-1H-indole-3-sulfonamide]	629
CCc1onc(NS(=O)(=O)c2c[nH]c3cc(Cl)ccc23)c1C [Example 7, 6-chloro-N-(5-ethyl-4-methyl-isoxazol-3-yl)-1H-indole-3-sulfonamide]	452
O=S(=O)(Nc1nsc(C2CC2)c1Cl)c1c[nH]c2nc(Br)ccc12 [Example 4, 6-bromo-N-(4-chloro-5-cyclopropyl-isothiazol-3-yl)-1H-pyrrolo[2,3-b]pyridine-3-sulfonamide]	103
Cc1onc(NS(=O)(=O)c2c[nH]c3cc(Cl)ccc23)c1Cl [Example 20, 6-chloro-N-(4-chloro-5-methyl-isoxazol-3-yl)-1H-indole-3-sulfonamide]	404

Now from value to compound:

IC50 [nM]	SMILES
105	CCc1snc(NS(=O)(=O)c2c[nH]c3cc(Cl)ccc23)c1Cl [Example 8, 6-chloro-N-(4-chloro-5-ethyl-isothiazol-3-yl)-1H-indole-3-sulfonamide]
106	Cc1snc(NS(=O)(=O)c2c[nH]c3cc(Cl)ccc23)c1Cl [Example 5, 6-chloro-N-(4-chloro-5-methyl-isothiazol-3-yl)-1H-indole-3-sulfonamide]
659	CCc1c(NS(=O)(=O)c2c[nH]c3cc(Cl)ccc23)nsc1C [Example 9, 6-chloro-N-(4-ethyl-5-methyl-isothiazol-3-yl)-1H-indole-3-sulfonamide]
19	CCCc1snc(NS(=O)(=O)c2c[nH]c3cc(Cl)ccc23)c1Cl [Example 1, 6-chloro-N-(4-chloro-5-propyl-isothiazol-3-yl)-1H-indole-3-sulfonamide]
78	CCCc1snc(NS(=O)(=O)c2c[nH]c3cc(Cl)ccc23)c1OC [Example 17, 6-chloro-N-(4-methoxy-5-propyl-isothiazol-3-yl)-1H-indole-3-sulfonamide]
51	O=S(=O)(Nc1nsc(C2CC2)c1Cl)c1c[nH]c2cc(Cl)ccc12 [Example 2, 6-chloro-N-(4-chloro-5-cyclopropyl-isothiazol-3-yl)-1H-indole-3-sulfonamide]
74	N#CCCc1snc(NS(=O)(=O)c2c[nH]c3cc(Cl)ccc23)c1Cl [Example 12, 6-chloro-N-[4-chloro-5-(2-cyanoethyl)isothiazol-3-yl]-1H-indole-3-sulfonamide]
216	Cc1snc(NS(=O)(=O)c2c[nH]c3cc(Cl)ccc23)c1C [Example 6, 6-chloro-N-(4,5-dimethylisothiazol-3-yl)-1H-indole-3-sulfonamide]
113	COc1snc(NS(=O)(=O)c2c[nH]c3cc(Cl)ccc23)c1Cl [Example 10, 6-chloro-N-(4-chloro-5-methoxy-isothiazol-3-yl)-1H-indole-3-sulfonamide]
54	CCOc1snc(NS(=O)(=O)c2c[nH]c3cc(Cl)ccc23)c1Cl [Example 11, 6-chloro-N-(4-chloro-5-ethoxy-isothiazol-3-yl)-1H-indole-3-sulfonamide]
857	COc1c(NS(=O)(=O)c2c[nH]c3cc(Cl)ccc23)nsc1C [Example 16, 6-chloro-N-(4-methoxy-5-methyl-isothiazol-3-yl)-1H-indole-3-sulfonamide]
